From PubChem BioAssay (NCI)
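GI50 is the concentration that inhibits growth by half. TGI marks complete inhibition of growth.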

Key:
Experiment in all cases: NCI anticancer screen, dose series, 384-well format
[1] = test system: 786-0 renal
[2] = test system: A498 renal
[3] = test system: A549 NSCLC
[4] = test system: ACHN renal
[5] = test system: BT-549 breast
[6] = test system: CAKI-1 renal
[7] = test system: CCRF-CEM leukemia
[8] = test system: COLO 205 colon
[9] = test system: DU-145 prostate
[10] = test system: EKVX NSCLC
[11] = test system: HCC-2998 colon
[12] = test system: HCT-116 colon
[13] = test system: HCT-15 colon
[14] = test system: HL-60(TB) leukemia
[15] = test system: HOP-62 NSCLC
[16] = test system: HOP-92 NSCLC
[17] = test system: HT29 colon
[18] = test system: IGROV1 ovarian
[19] = test system: K-562 leukemia
[20] = test system: KM12 colon
[21] = test system: LOX IMVI melanoma
[22] = test system: M14 melanoma
[23] = test system: MALME-3M melanoma
[24] = test system: MCF7 breast
[25] = test system: MDA-MB-231 breast
[26] = test system: MDA-MB-435 melanoma
[27] = test system: MDA-MB-468 breast
[28] = test system: MOLT-4 leukemia
[29] = test system: NCI-H226 lung
[30] = test system: NCI-H23 lung
[31] = test system: NCI-H322M lung
[32] = test system: NCI-H460 NSCLC
[33] = test system: NCI-H522 lung
[34] = test system: NCI/ADR-RES ovarian
[35] = test system: OVCAR-3 ovarian
[36] = test system: OVCAR-4 ovarian
[37] = test system: OVCAR-5 ovarian
[38] = test system: OVCAR-8 ovarian
[39] = test system: PC-3 prostate
[40] = test system: RPMI-8226 leukemia
[41] = test system: RXF 393 renal
[42] = test system: SF-268 CNS
[43] = test system: SF-295 CNS
[44] = test system: SF-539 CNS
[45] = test system: SK-MEL-2 melanoma
[46] = test system: SK-MEL-28 melanoma
[47] = test system: SK-MEL-5 melanoma
[48] = test system: SK-OV-3 ovarian
[49] = test system: SN12C renal
[50] = test system: SNB-19 CNS
[51] = test system: SNB-75 CNS
[52] = test system: SR leukemia
[53] = test system: SW-620 colon
[54] = test system: T-47D breast
[55] = test system: TK-10 renal
[56] = test system: U251 glioblastoma
[57] = test system: UACC-257 melanoma
[58] = test system: UACC-62 melanoma
[59] = test system: UO-31 renal

## O=C(NCC(=O)N1CC[C@H](NC2CCC(O)(c3ccc(-c4ncccn4)cn3)CC2)C1)c1cccc(C(F)(F)F)c1 (some centres not stated)
[1]
  GI50: 69.3 µM
  TGI: > 100 µM
[2]
  GI50: 55.1 µM
  TGI: > 100 µM
[3]
  GI50: > 100 µM
  TGI: > 100 µM
[4]
  GI50: > 100 µM
  TGI: > 100 µM
[5]
  GI50: 30 µM
  TGI: > 100 µM
[6]
  GI50: 48.1 µM
  TGI: > 100 µM
[7]
  GI50: 29.6 µM
  TGI: > 100 µM
[8]
  GI50: > 87 µM
  TGI: > 100 µM
[9]
  GI50: > 100 µM
  TGI: > 100 µM
[10]
  GI50: 55.9 µM
  TGI: > 100 µM
[11]
  GI50: 35.7 µM
  TGI: > 82.3 µM
[12]
  GI50: 32.1 µM
  TGI: > 100 µM
[13]
  GI50: > 66.7 µM
  TGI: > 100 µM
[14]
  GI50: 30.9 µM
  TGI: > 70.2 µM
[15]
  GI50: > 64.7 µM
  TGI: > 100 µM
[16]
  GI50: > 58.5 µM
  TGI: > 100 µM
[17]
  GI50: > 57.4 µM
  TGI: > 100 µM
[18]
  GI50: > 96 µM
  TGI: > 100 µM
[19]
  GI50: 15.4 µM
  TGI: 31.5 µM
[20]
  GI50: > 100 µM
  TGI: > 100 µM
[21]
  GI50: 53.6 µM
  TGI: > 100 µM
[22]
  GI50: > 49.1 µM
  TGI: > 73.5 µM
[23]
  GI50: > 56.4 µM
  TGI: > 90.9 µM
[24]
  GI50: > 54.6 µM
  TGI: > 100 µM
[25]
  GI50: 77.6 µM
  TGI: > 100 µM
[26]
  GI50: > 100 µM
  TGI: > 100 µM
[27]
  GI50: 17.1 µM
  TGI: 59.3 µM
[28]
  GI50: 20.9 µM
  TGI: 63 µM
[29]
  GI50: > 58 µM
  TGI: > 100 µM
[30]
  GI50: 33.5 µM
  TGI: > 88.2 µM
[31]
  GI50: > 92.4 µM
  TGI: > 100 µM
[32]
  GI50: 38.4 µM
  TGI: > 100 µM
[33]
  GI50: 65.6 µM
  TGI: > 100 µM
[34]
  GI50: > 100 µM
  TGI: > 100 µM
[35]
  GI50: > 81.8 µM
  TGI: > 100 µM
[36]
  GI50: > 60.6 µM
  TGI: > 100 µM
[37]
  GI50: > 100 µM
  TGI: > 100 µM
[38]
  GI50: 96.8 µM
  TGI: > 100 µM
[39]
  GI50: 61.7 µM
  TGI: > 100 µM
[40]
  GI50: 20.8 µM
  TGI: 74.2 µM
[41]
  GI50: 23.6 µM
  TGI: 63.3 µM
[42]
  GI50: > 81.4 µM
  TGI: > 100 µM
[43]
  GI50: > 96.1 µM
  TGI: > 100 µM
[44]
  GI50: > 67.3 µM
  TGI: > 100 µM
[45]
  GI50: > 64.4 µM
  TGI: > 100 µM
[46]
  GI50: > 60 µM
  TGI: > 100 µM
[47]
  GI50: 29.7 µM
  TGI: > 52.1 µM
[48]
  GI50: > 85.7 µM
  TGI: > 100 µM
[49]
  GI50: > 100 µM
  TGI: > 100 µM
[50]
  GI50: 97.5 µM
  TGI: > 100 µM
[51]
  GI50: > 100 µM
  TGI: > 100 µM
[52]
  GI50: 17.4 µM
  TGI: 31.5 µM
[53]
  GI50: > 100 µM
  TGI: > 100 µM
[54]
  GI50: 12.1 µM
  TGI: > 69.4 µM
[55]
  GI50: > 90 µM
  TGI: > 100 µM
[56]
  GI50: 52.5 µM
  TGI: > 100 µM
[57]
  GI50: 19.2 µM
  TGI: 41.1 µM
[58]
  GI50: > 47.5 µM
  TGI: > 70.8 µM
[59]
  GI50: 81.2 µM
  TGI: > 100 µM

## O=c1[nH]cc(N(CCCl)CCCl)c(=O)[nH]1
[1]
  GI50: 16.8 µM
[2]
  GI50: 68.9 µM
[3]
  GI50: 26.8 µM
[4]
  GI50: 2.88 µM
  TGI: 8.7 µM
[5]
  GI50: 11.2 µM
  TGI: 46.8 µM
[6]
  GI50: 4.39 µM
  TGI: 76.3 µM
[7]
  GI50: 2.21 µM
  TGI: 4.17 µM
[9]
  GI50: 14.1 µM
  TGI: 42.1 µM
[12]
  GI50: 7.54 µM
[13]
  GI50: 7.48 µM
[14]
  GI50: 1.23 µM
  TGI: 2.57 µM
[15]
  GI50: 7.79 µM
  TGI: 31.3 µM
[16]
  GI50: 19.3 µM
[17]
  GI50: 24.5 µM
[18]
  GI50: 91.9 µM
[19]
  GI50: 17.4 µM
[20]
  GI50: 98.9 µM
[21]
  GI50: 19.4 µM
[22]
  GI50: 9.7 µM
  TGI: 61.6 µM
[23]
  GI50: 19.2 µM
[24]
  GI50: 18 µM
[25]
  GI50: 35.1 µM
[26]
  GI50: 86.4 µM
[27]
  GI50: 2.73 µM
  TGI: 14.2 µM
[28]
  GI50: 0.594 µM
  TGI: 1.87 µM
[29]
  GI50: 51.4 µM
[30]
  GI50: 12.3 µM
  TGI: 57.9 µM
[33]
  GI50: 12.7 µM
  TGI: 25.6 µM
[34]
  GI50: 15.8 µM
[35]
  GI50: 23.5 µM
[37]
  GI50: 20.1 µM
  TGI: 67.4 µM
[38]
  GI50: 9.13 µM
[39]
  GI50: 73.1 µM
[40]
  GI50: 6.85 µM
  TGI: 20.3 µM
[41]
  GI50: 13.2 µM
  TGI: 27.4 µM
[42]
  GI50: 5.68 µM
  TGI: 41.1 µM
[43]
  GI50: 8.54 µM
  TGI: 26.4 µM
[44]
  GI50: 7.24 µM
  TGI: 29.8 µM
[45]
  GI50: 68 µM
[46]
  GI50: 65.8 µM
[48]
  GI50: 28.9 µM
[49]
  GI50: 4.66 µM
  TGI: 53.6 µM
[50]
  GI50: 24.6 µM
[51]
  GI50: 29.1 µM
[53]
  GI50: 8.78 µM
[54]
  GI50: 30 µM
[55]
  GI50: 50 µM
[56]
  GI50: 10.2 µM
[58]
  GI50: 6.43 µM
[59]
  GI50: 20.3 µM
